Results on 20 compounds are retold here after article PMC9611092 (Viruses, 2022).

The melting point is the temperature of the solid-liquid transition. As a reminder, the IC50 is the point on the concentration scale where inhibition reaches its midpoint.

Where two headings read alike, the source gives them in different places.

The nature of data set [1]: in vitro. The conditions noted are these: African green monkey.
Data set [2] can be described thus: Cytotoxicity of compounds on HEK293T cells (MTT). Format: cell-based. The conditions noted are these: human.
Data set [3] has as its system SARS-CoV-2 Wuhan lineage B, hCoV-19/Australia/VIC01/2020 (EPI_ISL_406844). Kind of data set: microbe, parasite or virus in culture. The data set is classed as cell-based. The conditions noted are these: for IC50: Severe acute respiratory syndrome coronavirus 2, Vero C1008, 96 h.
Data set [4] concerns lentiviral particles exhibiting S protein of SARS-CoV-2. Kind of data set: microbe, parasite or virus in culture. Format: cell-based. Conditions: for inhibition at 25 µM: Severe acute respiratory syndrome coronavirus 2, 48 h, read-out: % Neutralization at 25 µM.
The test system of data set [5] is main viral protease 3CLPro. The conditions noted are these: cited from earlier work; for active against 3CLPro at a dose of: range for the four flavonoids.
Data set [6] relates to SARS-CoV-2 Delta lineage B.1.617.2, hCoV-19/Russia/PSK-2804/2021. Kind of data set: microbe, parasite or virus in culture. The conditions noted are these: for IC50: Severe acute respiratory syndrome coronavirus 2, Vero C1008, 96 h. The data set is classed as cell-based.
Data set [7] addresses main protease (3CLpro) of SARS-CoV-2 (Severe acute respiratory syndrome coronavirus 2, UniProt P0DTD1). Put plainly: biochemical.
Data set [8] relates to SARS-CoV-2 Omicron lineage B.1.1.529, hCoV-19/Russia/Moscow171619-031221/2021. Put plainly: microbe, parasite or virus in culture. Format: cell-based. Conditions: Severe acute respiratory syndrome coronavirus 2, Vero C1008, 96 h.
The mark [9] stands for this setting: HEK293T cells, 72 h, MTT, read-out: CC50.
Setting [10] is: Severe acute respiratory syndrome coronavirus 2.

Compound `CC(=O)C1=C(O)C=C2Oc3c(C(=O)CSC(C)C(=O)O)c(O)c(C)c(O)c3[C@@]2(C)C1=O` (mixture of isomers) [Compound 5b, (2S)-2-({2-[(1R)-12-acetyl-3,5,11-trihydroxy-1,4-dimethyl-13-oxo-8-oxatricyclo[7.4.0.0^2,7]trideca-2(7),3,5,9,11-pentaen-6-yl]-2-oxoethyl}sulfanyl)propanoic acid and (2R)-2-({2-[(1R)-12-acetyl-3,5,11-trihydroxy-1,4-dimethyl-13-oxo-8-oxatricyclo [7.4.0.0^2,7]trideca-2(7),3,5,9,11-pentaen-6-yl]-2-oxoethyl}sulfanyl)propanoic acid (1:1)] yielded a melting point of 91 to 95 °C. The compound also gave a CC50 at 4 days in data set [1] of 176 ± 22.6 µM. Also, the CC50 at 72 h in [2] was more than 1000 µM. In data set [3], the “antiviral activity (in words)” value is on record as “low activity” and half-maximal inhibition (IC50) required 76.5 ± 8.2 µM. In data set [4], the inhibition at 25 µM is 41%.

For the compound `COc1ccc(-c2cc(=O)c3c(O)c(O)c(O)cc3o2)cc1` [4′-O-methylscutellarein], in data set [5], the “activity against the main protease (in words)” value is given as “submicromolar”.

With `CCOC(=O)c1c(CSc2ccccc2)n(C)c2cc(Br)c(O)c(CN(C)C)c12` [Arbidol, reference compound], the CC50 at 72 h in data set [2] (setting [9]) came out at 19.8 ± 4.6 µM. Moreover, half-maximal inhibition in [4] (setting [10]) (IC50) required 12.6 ± 4.1 µM. Moreover, the inhibition at 25 µM in data set [4] turned out to be 58%.

Regarding `CC(=O)C1=C(O)C=C2Oc3c(C(C)=O)c(O)c(C)c(O)c3[C@@]2(C)C1=O` [Compound 1, (R)-(+)-Usnic acid], the IC50 in data set [6] was found to be 20.9 ± 3.4 µM; in data set [8] it was 3.7 ± 0.8 µM; in data set [3] it was 10.9 ± 2.2 µM. The compound further registered a CC50 in [1] of 147 ± 22.1 µM. Also, the “inhibition of the main protease (in words)” value in data set [7] is recorded as “not an inhibitor”. In [2] (setting [9]), the CC50 at 72 h was more than 1000 µM. Further, the “activity against the pseudovirus system (in words)” value in data set [4] was “is not an entry inhibitor”. The inhibition at 25 µM in data set [4] is 12%.

For the compound `CC(=O)c1c(O)c(C)c(O)c2c1OC1=Cc3onc(C)c3C(=O)[C@@]12C` [Compound 2], the CC50 at 4 days in data set [1] came out at 252 ± 31 µM. The same compound showed a CC50 at 72 h in data set [2] of more than 1000 µM. Also, the “antiviral activity (in words)” value in data set [3] is on record as “did not exhibit antiviral activity at all”. Besides, in data set [4], the “In Vitro (Pseudotype-Based Assay)” value is “yes” and the inhibition at 25 µM worked out at 55%. The half-maximal inhibitory concentration (IC50) in data set [4] (setting [10]) is 30 ± 2.9 µM.

Turning to `CC(=O)c1c(O)c(C)c(O)c2c1OC1=CC(=O)c3c(C)noc3[C@@]12C` [Compound 3], the 50% inhibitory concentration (IC50) amounted to 9.1 ± 1.8 µM in data set [6], 3.5 ± 1.1 µM in data set [8], 9.2 ± 2.4 µM in data set [3] and 32 ± 5.1 µM in [4] (setting [10]). In [1], this compound showed a CC50 at 4 days of 15.5 ± 2.8 µM. Besides, the CC50 at 72 h in data set [2] was determined as 150 ± 18.5 µM. For the same compound, in data set [4], the inhibition at 25 µM stood at 65%.

As to `CC(=O)C1=C(O)C=C2Oc3c(C(=O)CSCCC(=O)O)c(O)c(C)c(O)c3[C@@]2(C)C1=O` [Compound 5a], in data set [1], the CC50 at 4 days was determined as 177 ± 18.2 µM. In data set [2], this compound gave a CC50 at 72 h of more than 1000 µM. The “antiviral activity (in words)” value in data set [3] is recorded as “no antiviral activity at all”. In data set [4], the “activity against the pseudovirus system (in words)” value is given as “no activity” and the inhibition at 25 µM came to 0%.

In data set [1], `CC(=O)C1=C(O)C=C2Oc3c(C(C)=O)c(O)c(C)c(O)c3[C@@]2(C)[C@@H]1O` [Compound 6] displayed a CC50 of 99 ± 12.1 µM. Also, the IC50 was found to be 112 µM in [7] and 65.3 ± 7.4 µM in data set [3]. In addition, the CC50 at 72 h in [2] (setting [9]) is 168 ± 21.2 µM. In addition, the inhibition at 25 µM in data set [4] was determined as 40%.

`CC(=O)c1c(O)c(C)c(O)c2c1OC1=CC(=O)/C(=C(/C)N)C(=O)[C@@]12C` [Compound 7]: the CC50 at 4 days in [1] stood at 528 ± 16 µM. This compound yielded a half-maximal inhibitory concentration (IC50) in [7] of approximately 200 µM. The CC50 at 72 h in data set [2] was determined as 850 ± 22.6 µM. Besides, the “antiviral activity (in words)” value in data set [3] is “has no antiviral activity at all”. Moreover, in [4], the inhibition at 25 µM is 12%.

Consider `CC(=O)C1=C(O)C=C2Oc3c4c(c(C)c(O)c3[C@@]2(C)C1=O)OCC4=O` [Compound 8], for which, in data set [6], the “antiviral activity (in words)” value was “almost no activity”. In addition, the IC50 in data set [6] was 95 ± 8.7 µM; in data set [7], approximately 200 µM; in [8], 47 ± 6.5 µM; in data set [3], 44.3 ± 5.2 µM. The same compound displayed a CC50 at 4 days in [1] of 176 ± 19.9 µM. Moreover, the CC50 at 72 h in data set [2] was 358 ± 31.1 µM. For the same compound, the “activity against the pseudovirus system (in words)” value in [4] is listed as “no activity”. Also, the inhibition at 25 µM in data set [4] is 0%.

`CC(=O)C1=C(O)C=C2Oc3c(C(=O)CO)c(O)c(C)c(O)c3[C@@]2(C)C1=O` [Compound 10, (2R)-4-acetyl-5,11,13-trihydroxy-10-(2-hydroxyacetyl)-2,12-dimethyl-8-oxatricyclo[7.4.0.0^2,7]trideca-1(9),4,6,10,12-pentaen-3-one] yielded a melting point of 107 to 110 °C. Besides, in data set [6], the IC50 was 9.7 ± 1.4 µM. In data set [1], this compound yielded a CC50 at 4 days of 306 ± 28.6 µM. For the same compound, the IC50 in data set [7] was approximately 200 µM. The compound further returned a concentration for half-maximal inhibition (IC50) in data set [8] of 17.5 ± 3.8 µM. In data set [2], this compound gave a CC50 at 72 h of 750 ± 36.6 µM. The compound further returned an IC50 in data set [3] of 25.3 ± 2.1 µM. In addition, the inhibition at 25 µM in data set [4] came out at 45%.

In the case of `CC(=O)C1=C(O)C[C@H]2Oc3c(C(C)=O)c(O)c(C)c(O)c3[C@@]2(C)C1=O` [Compound 11, (2R,7R)-4,10-diacetyl-5,11,13-trihydroxy-2,12-dimethyl-8-oxatricyclo [7.4.0.0^2,7]trideca-1(9),4,10,12-tetraen-3-one], the CC50 at 4 days in [1] was found to be 84.9 ± 12.1 µM. Further, the CC50 at 72 h in data set [2] was 469 ± 24.2 µM. Besides, the IC50 in data set [3] turned out to be 21 ± 3.5 µM; in data set [4] (setting [10]), 22 ± 3.2 µM. Besides, the inhibition at 25 µM in data set [4] turned out to be 78%.

For `CCC1=C(O)C[C@H]2Oc3c(C(C)=O)c(O)c(C)c(O)c3[C@@]2(C)C1=O` [Compound 12, (2R,7R)-10-acetyl-4-ethyl-5,11,13-trihydroxy-2,12-dimethyl-8-oxatricyclo[7.4.0.0^2,7]trideca-1(13),4,9,11-tetraen-3-one], the melting point was 58 to 62 °C. Half-maximal inhibition in [6] (IC50) required 85 ± 11.2 µM. Also, the CC50 at 4 days in [1] is 262 ± 32 µM. The IC50 in data set [8] stood at 60 ± 12.1 µM. Further, in data set [2], the CC50 at 72 h was more than 1000 µM. Also, it took 91 ± 7.1 µM to reach half-maximal inhibition in data set [3] (IC50). The compound further yielded a half-maximal inhibitory concentration (IC50) in data set [4] (setting [10]) of 28 ± 3.7 µM. In addition, the inhibition at 25 µM in [4] worked out at 53%.

`CC(=O)c1c(O)c(C)c(O)c2c1O[C@@H]1CC/C(=C(/C)O)C(=O)[C@]21C` [Compound 13, (2R,4E,7R)-10-acetyl-11,13-dihydroxy-4-(1-hydroxyethylidene)-2,12-dimethyl-8-oxatricyclo [7.4.0.0^2,7] trideca-1(13),9,11-trien-3-one] returned a melting point of 100 to 103 °C. The same compound gave a 50% inhibitory concentration (IC50) in data set [6] of 13.5 ± 2.1 µM. For the same compound, the CC50 at 4 days in [1] is 72.7 ± 14.6 µM. The same compound gave an IC50 in [8] of 6.6 ± 1.9 µM. This compound returned a CC50 at 72 h in data set [2] of 151 ± 14.9 µM. Moreover, the IC50 in [3] was 6.7 ± 1.4 µM. Also, in data set [4], the IC50 came out at 5.28 ± 0.8 µM and the inhibition at 25 µM is 95%. In data set [4] (setting [10]), this compound had an IC50 of 5.3 µM.

Compound `CC(=O)c1c(O)c(C)c(O)c2c1O[C@@H]1Cc3onc(C)c3C(=O)[C@]21C` [Compound 14, (1R,9R)-6-acetyl-3,5-dihydroxy-1,4,14-trimethyl-8,12-dioxa-13-azatetracyclo[7.7.0.0^2,7.0^11,^1⁵]hexadeca-2(7),3,5,11(15),13-pentaen-16-one] displayed a melting point of 152 to 156 °C. In data set [1], this compound displayed a CC50 at 4 days of 296 ± 11.9 µM. The compound further came in with a CC50 at 72 h in [2] of more than 1000 µM. Besides, the “antiviral activity (in words)” value in data set [3] is on record as “does not exhibit antiviral properties”. The inhibition at 25 µM in data set [4] is 15%.

As for `O=C1c2c(O)cc(O)cc2O[C@H](c2cc(O)c(O)c(O)c2)[C@H]1O` [Dihydromyricetin], the “active against 3CLPro at a dose of” value in [5] is 1.2 to 5.8 µM.

Consider `O=c1c(O)c(-c2cc(O)c(O)c(O)c2)oc2cc(O)cc(O)c12` [Myricetin], for which the “active against 3CLPro at a dose of” value in data set [5] was 1.2 to 5.8 µM.

In the case of `O=c1c(O)c(-c2ccc(O)c(O)c2)oc2cc(O)c(O)c(O)c12` [Quercetagetin], the “active against 3CLPro at a dose of” value in data set [5] is 1.2 to 5.8 µM.

For the compound `CCC(CC)COC(=O)[C@H](C)N[P@](=O)(OC[C@H]1O[C@@](C#N)(c2ccc3c(N)ncnn23)[C@H](O)[C@@H]1O)Oc1ccccc1` [Remdesivir, reference compound], the half-inhibitory concentration (IC50) in data set [6] stood at 2.1 ± 0.16 µM; in data set [8] it was 2 ± 0.13 µM; in [3] it was 3.8 ± 0.42 µM. The same compound had a CC50 in data set [1] of 711 ± 21.2 µM.

Regarding `O=c1cc(-c2ccc(O)cc2)oc2cc(O)c(O)c(O)c12` [Scutellarein], the “active against 3CLPro at a dose of” value in data set [5] was 1.2 to 5.8 µM.
